Converted amounts (≈) assume the structure as drawn. Read-outs that look alike come from different tables or passages of the source.
Assays:
Leukemia L-1210 cells = assay: Antitumor test against leukemia L-1210 in CDF1 mice (T/C, %); format: in vivo, mouse (CDF1); settings: for antitumor activities (in words): compared with FT-DM, FT-ADM, adriamycin or another test compound; for % Increase in life-span (T/C, %) / mice cured and surviving for 60 days or longer / mice tested: 9 days
Method: Thus, to evaluate the antitumor effects of the new compounds according to the first aspect of this invention against experimental tumors in animals, CDF1 mice (four mice per group) were intraperitoneally transplanted with cells of Leukemia L-1210 at an amount of 1×10^5 cells/mouse. Since an elapsed time of 24 hours from the transplantation of the leukemia cells, a test compound according to this invention was administered intraperitoneally to the mice under test for 9 consecutive days once per day. […] While, mice of the control group (the untreated group) were administered with only physiological saline after the transplantation of the L-1210 cells. During the observation period, the numbers of the surviving mice in the treated group and in the control group were counted, and the mean survival days of mice in the treated group and in the control group were then calculated. From the mean survival day (C) of the untreated mice of the control group and the mean survival day (T) of the treated mice of the treated group, there were evaluated percentages (%) of the increase in the life-span of the treated mice, as T/C %. For a comparison purpose, 7-O-(2,6-dideoxy-2-fluoro-α-L-talopyranosyl)daunomycinone (abbreviation: FT-DM); 7-O-(2,6-dideoxy-2-fluoro-α-L-talopyranosyl)adriamycinone(abbreviation: FT-ADM); and adriamycin were also tested in the same manner as above. Incidentally, the mean survival day of mice of the control group (the untreated group) was amounting to 8 to 9 days, and the mean survival day of mice of the comparative groups having received the administration of adriamycin was varying dependently on the dosage of adriamycin.
Notes; Asterisks (*) indicate that development of toxicity such as
toxicityrelated death or a body weight loss was observed on the
corresponding mice tested.

[1] = system: mouse leukemia, P388 cells; assay: In vitro growth inhibition of P388 cells, 72 hours; format: cell-based
[2] = system: adriamycin-resistant P388 cells (P388/ADR); assay: In vitro growth inhibition of adriamycin-resistant P388 cells (P388/ADR), 72 hours; format: cell-based; settings: Mus musculus, 72 hours, test compounds as trifluoroacetate, read-out: IC50
[3] = in vivo; cited from earlier work
[4] = 0.3 mg/kg/day i.p., ">" = at least one of four mice survived 60 days or longer
[5] = 0.6 mg/kg/day i.p., ">" = at least one of four mice survived 60 days or longer
[6] = 1.25 mg/kg/day i.p., ">" = at least one of four mice survived 60 days or longer
[7] = 2.5 mg/kg/day i.p., ">" = at least one of four mice survived 60 days or longer
[8] = 5 mg/kg/day i.p., ">" = at least one of four mice survived 60 days or longer
[9] = P388, 72 hours, test compounds as trifluoroacetate, read-out: IC50

Row | SMILES | IC50 ([1]; P388, 72 h) | IC50 [2] | % Increase in life-span (T/C, %) (Leukemia L-1210 cells; 0.15 mg/kg/day i.p.) | % Increase in life-span (T/C, %) (Leukemia L-1210 cells; [5]) | % Increase in life-span (T/C, %) (Leukemia L-1210 cells; [6]) | % Increase in life-span (T/C, %) (Leukemia L-1210 cells; [7]) | % Increase in life-span (T/C, %) (Leukemia L-1210 cells; [8]) | IC50 [1, 9] | other results
1 | COc1cccc2c1C(=O)c1c(O)c3c(c(O)c1C2=O)C[C@@](O)(C(=O)CO)C[C@@H]3O[C@@H]1O[C@@H](C)[C@@H](O)[C@@H](OC(=O)[C@H](C)N)[C@H]1F [Compound 8b, 7-O-(3-O-L-alanyl-2,6-dideoxy-2-fluoro-α-L-talopyranosyl)adriamycinone] | – | – | – | – | – | – | – | – | antitumor activities (in words) (Leukemia L-1210 cells; daunomycin): remarkably improved antitumor activities in comparison with those of the parent compound, FT-ADM
2 | COc1cccc2c1C(=O)c1c(O)c3c(c(O)c1C2=O)C[C@@](O)(C(=O)CO)C[C@@H]3O[C@@H]1O[C@@H](C)[C@@H](OC(=O)[C@H](C)N)[C@@H](O)[C@H]1F [Compound 9b, 7-O-(4-O-L-alanyl-2,6-dideoxy-2-fluoro-α-L-talopyranosyl)adriamycinone] | – | – | – | – | – | – | – | – | antitumor activities (in words) (Leukemia L-1210 cells; daunomycin): remarkably improved antitumor activities in comparison with those of the parent compound, FT-ADM
3 | COc1cccc2c1C(=O)c1c(O)c3c(c(O)c1C2=O)C[C@@](O)(C(=O)CO)C[C@@H]3O[C@@H]1O[C@@H](C)[C@@H](OC(=O)CN)[C@@H](OC(=O)CN)[C@H]1F [Compound 11a, 7-O-(2,6-dideoxy-2-fluoro-3,4-di-O-glycyl-α-L-talopyranosyl)adriamycinone] | < 0.0098 µg/mL | 0.32 µg/mL (≈ 0.473 µM) | 111% | 170% | 321% | > 430% | > 518% | – | % Increase in life-span (T/C, %) (Leukemia L-1210 cells; [4]): 125%; mice cured and surviving for 60 days or longer / mice tested (Leukemia L-1210 cells; 2.5 mg/kg/day i.p.): 1/4; mice cured and surviving for 60 days or longer / mice tested (Leukemia L-1210 cells; 5 mg/kg/day i.p.): 2/4
4 | COc1cccc2c1C(=O)c1c(O)c3c(c(O)c1C2=O)C[C@@](O)(C(=O)CO)C[C@@H]3O[C@@H]1O[C@@H](C)[C@@H](OC(=O)[C@H](C)N)[C@@H](OC(=O)[C@H](C)N)[C@H]1F [Compound 11b, 7-O-(3,4-di-O-L-alanyl-2,6-dideoxy-2-fluoro-α-L-talopyranosyl)adriamycinone] | < 0.0098 µg/mL | 0.31 µg/mL (≈ 0.44 µM) | 115% | > 361% | > 407% | > 666% | > 502% | – | % Increase in life-span (T/C, %) (Leukemia L-1210 cells; [4]): 144%; mice cured and surviving for 60 days or longer / mice tested (Leukemia L-1210 cells; 0.6 mg/kg/day i.p.): 1/4; mice cured and surviving for 60 days or longer / mice tested (Leukemia L-1210 cells; 1.25 mg/kg/day i.p.): 1/4; mice cured and surviving for 60 days or longer / mice tested (Leukemia L-1210 cells; 2.5 mg/kg/day i.p.): 2/4; mice cured and surviving for 60 days or longer / mice tested (Leukemia L-1210 cells; 5 mg/kg/day i.p.): 2/4; antitumor activities (in words) (Leukemia L-1210 cells; daunomycin): a little inferior to the antitumor activities of said mixture of Compounds 8b and 9b but are yet considerably high antiumor activities
5 | COc1cccc2c1C(=O)c1c(O)c3c(c(O)c1C2=O)C[C@@](O)(C(=O)CO)C[C@@H]3O[C@@H]1O[C@@H](C)[C@@H](OC(=O)[C@@H](N)Cc2ccccc2)[C@@H](OC(=O)[C@@H](N)Cc2ccccc2)[C@H]1F [Compound 11c, 7-O-(2,6-dideoxy-2-fluoro-3,4-di-O-L-phenylalanyl-α-L-talopyranosyl)adriamycinone] | – | 0.14 µg/mL (≈ 0.163 µM) | 123% | 143% | 170% | 177% | 253% | 0.026 µg/mL (≈ 0.0303 µM) | % Increase in life-span (T/C, %) (Leukemia L-1210 cells; [4]): 130%
6 | COc1cccc2c1C(=O)c1c(O)c3c(c(O)c1C2=O)C[C@@](O)(C(=O)CO)C[C@@H]3O[C@@H]1O[C@@H](C)[C@@H](OC(=O)[C@@H](N)C(C)C)[C@@H](OC(=O)[C@@H](N)C(C)C)[C@H]1F [Compound 11d, 7-O-(2,6-dideoxy-2-fluoro-3,4-di-O-L-valyl-α-L-talopyranosyl)adriamycinone] | < 0.0098 µg/mL | 0.32 µg/mL (≈ 0.421 µM) | – | – | – | – | – | – | –
7 | COc1cccc2c1C(=O)c1c(O)c3c(c(O)c1C2=O)C[C@@](O)(C(=O)CO)C[C@@H]3O[C@@H]1O[C@@H](C)[C@@H](OC(=O)[C@@H](N)CC(C)C)[C@@H](OC(=O)[C@@H](N)CC(C)C)[C@H]1F [Compound 11e, 7-O-(2,6-dideoxy-2-fluoro-3,4-di-O-L-leucyl-α-L-talopyranosyl)adriamycinone] | – | 0.27 µg/mL (≈ 0.342 µM) | – | – | – | – | – | 0.032 µg/mL (≈ 0.0406 µM) | –
8 | COc1cccc2c1C(=O)c1c(O)c3c(c(O)c1C2=O)C[C@@](O)(C(=O)CO)C[C@@H]3O[C@@H]1O[C@@H](C(F)(F)F)[C@@H](OC(=O)CN)[C@@H](OC(=O)CN)[C@H]1F [Compound 18, 7-O-(2,6-dideoxy-2,6,6,6-tetrafluoro-3,4-di-O-glycyl-α-L-talopyranosyl)adriamycinone] | – | 0.28 µg/mL (≈ 0.383 µM) | – | – | – | – | – | < 0.0098 µg/mL | –
9 | COc1cccc2c1C(=O)c1c(O)c3c(c(O)c1C2=O)C[C@@](O)(C(=O)CO)C[C@@H]3O[C@H]1C[C@H](OC(=O)CN)[C@H](OC(=O)CN)[C@H](C(F)(F)F)O1 [Compound 25, 7-O-(2,6-dideoxy-6,6,6-trifluoro-3,4-di-O-glycyl-α-L-lyxo-hexopryranosyl)adriamycinone] | < 0.0098 µg/mL | – | – | – | – | – | – | – | –
10 | COc1cccc2c1C(=O)c1c(O)c3c(c(O)c1C2=O)C[C@@](O)(C(=O)CO)C[C@@H]3O[C@@H]1O[C@@H](C(F)(F)F)[C@@H](OC(=O)[C@H](C)N)[C@@H](OC(=O)[C@H](C)N)[C@H]1F [Compound 31, 7-O-(3,4-di-O-L-alanyl-2,6-dideoxy-2,6,6,6-tetrafluoro-α-L-talopyranosyl)adriamycinone] | – | 0.14 µg/mL (≈ 0.185 µM) | – | – | – | – | – | < 0.0098 µg/mL | –
11 | COc1cccc2c1C(=O)c1c(O)c3c(c(O)c1C2=O)C[C@@](O)(C(=O)CO)C[C@@H]3O[C@@H]1O[C@@H](C(F)(F)F)[C@@H](OC(=O)[C@@H](N)Cc2ccccc2)[C@@H](OC(=O)[C@@H](N)Cc2ccccc2)[C@H]1F [Compound 37, 7-O-(2,6-dideoxy-2,6,6,6-tetrafuluoro-3,4-di-O-L-phenylalanyl-α-L-talopyranosyl)adriamycinone] | – | 0.17 µg/mL (≈ 0.187 µM) | – | – | – | – | – | 0.016 µg/mL (≈ 0.0176 µM) | –
12 | COc1cccc2c1C(=O)c1c(O)c3c(c(O)c1C2=O)C[C@@](O)(C(=O)CO)C[C@@H]3O[C@H]1C[C@H](OC(=O)[C@H](C)N)[C@H](OC(=O)[C@H](C)N)[C@H](C(F)(F)F)O1 [Compound 43, 7-O-(3,4-di-O-L-alanyl-2,6-dideoxy-6,6,6-trifluoro-α-L-lyxo-hexopyranosyl)adriamycinone] | < 0.0098 µg/mL | 0.22 µg/mL (≈ 0.297 µM) | – | – | – | – | – | – | –
13 | COc1cccc2c1C(=O)c1c(O)c3c(c(O)c1C2=O)C[C@@](O)(C(=O)CO)C[C@@H]3O[C@H]1C[C@H](OC(=O)[C@@H](N)Cc2ccccc2)[C@H](OC(=O)[C@@H](N)Cc2ccccc2)[C@H](C(F)(F)F)O1 [Compound 49, 7-O-(2,6-dideoxy-6,6,6-trifluoro-3,4-di-O-L-phenylalanyl-α-L-lyxo-hexopyranosyl)adriamycinone] | – | 0.28 µg/mL (≈ 0.314 µM) | – | – | – | – | – | 0.02 µg/mL (≈ 0.0224 µM) | –
14 | COc1cccc2c1C(=O)c1c(O)c3c(c(O)c1C2=O)C[C@@](O)(C(=O)CO)C[C@@H]3O[C@@H]1O[C@@H](C)[C@@H](O)[C@@H](O)[C@H]1F [FT-ADM, 7-O-(2,6-dideoxy-2-fluoro-α-L-talopyranosyl)adriamycinone, reference compound] | – | – | 127% | 185% | 275% | > 352% | > 740% | – | % Increase in life-span (T/C, %) (Leukemia L-1210 cells; [4]): 182%; mice cured and surviving for 60 days or longer / mice tested (Leukemia L-1210 cells; 2.5 mg/kg/day i.p.): 1/4; mice cured and surviving for 60 days or longer / mice tested (Leukemia L-1210 cells; 5 mg/kg/day i.p.): 4/4
15 | COc1cccc2c1C(=O)c1c(O)c3c(c(O)c1C2=O)C[C@@](O)(C(C)=O)C[C@@H]3O[C@@H]1O[C@@H](C)[C@@H](O)[C@@H](O)[C@H]1F [FT-DM, 7-O-(2,6-dideoxy-2-fluoro-α-L-talopyranosyl)daunomycinone, reference compound] | – | – | 105% | 125% | 171% | 217% | 184% | – | –
16 | COc1cccc2c1C(=O)c1c(O)c3c(c(O)c1C2=O)C[C@@](O)(C(C)=O)C[C@@H]3O[C@H]1C[C@H](N)[C@H](O)[C@H](C)O1 [daunomycin, reference compound] | – | – | – | – | – | – | – | – | serious side-effects (in words) [3]: serious side-effects such as leukocytopenia, alopecia, myocardiopathy and others; percentage (%) of increase in life-span (T/C, %) at maximum (Leukemia L-1210 cells; 2.5 mg/kg/day to 5 mg/kg/day, L-1210 mice): approximately 330%; development of toxicity (in words) (Leukemia L-1210 cells; daunomycin, adriamycin 2.5 mg/kg/day to 5 mg/kg/day, L-1210 mice): being accompanied by development of toxicity

Source: patent US5789386A, “Fluorine-containing anthracycline derivatives having hydroxyl groups(s) mono- or di-o-aminoalkanoylated in the sugar moiety thereof” (priority 1995, dated 1998)
